# Biological target: T1, human FASN (Homo sapiens, UniProt P49327)
# T1 construct: was purified from SKBR3 cells using procedures modified from those in Jayakumar et al; endogenous in cells; host or cells: SKBR3 human breast cancer cells (ATCC); Endogenous enzyme purified by ammonium sulfate precipitation and a mono Q column
# Experiment: FASN NADPH Consumption Assay
# Assay type: biochemical
# Details: human FASN purified from SKBR3 cells; starred symbols
# Procedure: Human FASN protein (SEQ ID NO. 1) was purified from SKBR3 cells using procedures modified from those in Jayakumar et al. PNAS 1995, 92:8695-8699. SKBR3 cells were obtained from ATCC and grown in DMEM high glucose medium supplemented with 10% FBS, 1 μg/mL bovine pancreas insulin, 100 U/mL penicillin and 100 µg/mL streptomycin. The confluent cells were trypsinized and washed three times with PBS buffer before frozen in liquid N2 and stored at −80° C. Frozen cells were thawed on ice and resuspended in lysis buffer (25 mM Tris-HCl, pH 7.0, 15 mM NaCl, 1 mM EDTA, and 1 mM DTT) with protease inhibitors. The cells were lysed by sonication, and the cell debris was removed by centrifugation at 20,000 rpm for 30 min. To the supernatant, neutralized saturated ammonium sulfate solution was added to a final concentration of 35%. The solution was left on ice for 1 hr, and the precipitated proteins were harvested by centrifugation at 20,000 rpm for 30 min. The proteins were redissolved in lysis buffer without NaCl and loaded on a mono Q column. Bound proteins were eluted with a linear gradient of NaCl in lysis buffer. Each fraction was analyzed by SDS-PAGE and FASN NADPH consumption assay. The fractions containing FASN were pooled and concentrated to 2-3 mg/mL. Glycerol was added to 20%, and the protein was frozen in liquid N2 and stored at −80° C.
# All chemicals were purchased from Sigma (St. Louis, Mo.). The procedures of NADPH consumption assay were similar to those described in Cox et al., PNAS 1983, 80:4233-4237. On a 96-well polypropylene microplate, dilution series (typical concentrations 60 nM-1.0 mM) of test compounds were prepared in DMSO, of which 4.0 μL each was transferred to a black polystyrene assay microplate and mixed with 36 μL FASN assay buffer (50 mM potassium phosphate, pH 7.0, 1.0 mM EDTA, 0.01% NP-40) plus 5.0 mM fresh DTT. FASN protein (40 μL 150 nM FASN) was added per well, and the microplate was incubated at 37° C. for 30 min. Enzyme activity measurement was initiated by addition of 20 μL 5× substrate mixture to final concentrations of 60 nM FASN, 2.4 nM-40 μM compound, 0.2 mM NADPH, 50 μM butyryl-CoA, 0.5 mM malonyl-CoA in 100 μL assay buffer plus 5.0 mM DTT and 4.0% DMSO. NADPH consumption was monitored kinetically by fluorescence (λEx=340 nm, λEm=460 nm) on an EnVision 2100 multilabel plate reader (Perkin Elmer, Waltham, Mass.). FASN enzyme activity (slope) in the presence of 4% DMSO was used as maximum control, whereas background (minimum control) was measured by omission of malonyl-CoA in the substrate mixture. Inhibition curves were fitted by a logistic function to yield IC50 values:
# Compounds were assayed as inhibitors of human FASN using the above-described FASN Scintillation Proximity Flashplate Assay (IC50; nM) or FASN NADPH Consumption Assay (*) (IC50; nM). The corresponding activity of the isolated compound is also provided along with the measured mass (ES^+).
# T1 sequence (P49327 whole entry): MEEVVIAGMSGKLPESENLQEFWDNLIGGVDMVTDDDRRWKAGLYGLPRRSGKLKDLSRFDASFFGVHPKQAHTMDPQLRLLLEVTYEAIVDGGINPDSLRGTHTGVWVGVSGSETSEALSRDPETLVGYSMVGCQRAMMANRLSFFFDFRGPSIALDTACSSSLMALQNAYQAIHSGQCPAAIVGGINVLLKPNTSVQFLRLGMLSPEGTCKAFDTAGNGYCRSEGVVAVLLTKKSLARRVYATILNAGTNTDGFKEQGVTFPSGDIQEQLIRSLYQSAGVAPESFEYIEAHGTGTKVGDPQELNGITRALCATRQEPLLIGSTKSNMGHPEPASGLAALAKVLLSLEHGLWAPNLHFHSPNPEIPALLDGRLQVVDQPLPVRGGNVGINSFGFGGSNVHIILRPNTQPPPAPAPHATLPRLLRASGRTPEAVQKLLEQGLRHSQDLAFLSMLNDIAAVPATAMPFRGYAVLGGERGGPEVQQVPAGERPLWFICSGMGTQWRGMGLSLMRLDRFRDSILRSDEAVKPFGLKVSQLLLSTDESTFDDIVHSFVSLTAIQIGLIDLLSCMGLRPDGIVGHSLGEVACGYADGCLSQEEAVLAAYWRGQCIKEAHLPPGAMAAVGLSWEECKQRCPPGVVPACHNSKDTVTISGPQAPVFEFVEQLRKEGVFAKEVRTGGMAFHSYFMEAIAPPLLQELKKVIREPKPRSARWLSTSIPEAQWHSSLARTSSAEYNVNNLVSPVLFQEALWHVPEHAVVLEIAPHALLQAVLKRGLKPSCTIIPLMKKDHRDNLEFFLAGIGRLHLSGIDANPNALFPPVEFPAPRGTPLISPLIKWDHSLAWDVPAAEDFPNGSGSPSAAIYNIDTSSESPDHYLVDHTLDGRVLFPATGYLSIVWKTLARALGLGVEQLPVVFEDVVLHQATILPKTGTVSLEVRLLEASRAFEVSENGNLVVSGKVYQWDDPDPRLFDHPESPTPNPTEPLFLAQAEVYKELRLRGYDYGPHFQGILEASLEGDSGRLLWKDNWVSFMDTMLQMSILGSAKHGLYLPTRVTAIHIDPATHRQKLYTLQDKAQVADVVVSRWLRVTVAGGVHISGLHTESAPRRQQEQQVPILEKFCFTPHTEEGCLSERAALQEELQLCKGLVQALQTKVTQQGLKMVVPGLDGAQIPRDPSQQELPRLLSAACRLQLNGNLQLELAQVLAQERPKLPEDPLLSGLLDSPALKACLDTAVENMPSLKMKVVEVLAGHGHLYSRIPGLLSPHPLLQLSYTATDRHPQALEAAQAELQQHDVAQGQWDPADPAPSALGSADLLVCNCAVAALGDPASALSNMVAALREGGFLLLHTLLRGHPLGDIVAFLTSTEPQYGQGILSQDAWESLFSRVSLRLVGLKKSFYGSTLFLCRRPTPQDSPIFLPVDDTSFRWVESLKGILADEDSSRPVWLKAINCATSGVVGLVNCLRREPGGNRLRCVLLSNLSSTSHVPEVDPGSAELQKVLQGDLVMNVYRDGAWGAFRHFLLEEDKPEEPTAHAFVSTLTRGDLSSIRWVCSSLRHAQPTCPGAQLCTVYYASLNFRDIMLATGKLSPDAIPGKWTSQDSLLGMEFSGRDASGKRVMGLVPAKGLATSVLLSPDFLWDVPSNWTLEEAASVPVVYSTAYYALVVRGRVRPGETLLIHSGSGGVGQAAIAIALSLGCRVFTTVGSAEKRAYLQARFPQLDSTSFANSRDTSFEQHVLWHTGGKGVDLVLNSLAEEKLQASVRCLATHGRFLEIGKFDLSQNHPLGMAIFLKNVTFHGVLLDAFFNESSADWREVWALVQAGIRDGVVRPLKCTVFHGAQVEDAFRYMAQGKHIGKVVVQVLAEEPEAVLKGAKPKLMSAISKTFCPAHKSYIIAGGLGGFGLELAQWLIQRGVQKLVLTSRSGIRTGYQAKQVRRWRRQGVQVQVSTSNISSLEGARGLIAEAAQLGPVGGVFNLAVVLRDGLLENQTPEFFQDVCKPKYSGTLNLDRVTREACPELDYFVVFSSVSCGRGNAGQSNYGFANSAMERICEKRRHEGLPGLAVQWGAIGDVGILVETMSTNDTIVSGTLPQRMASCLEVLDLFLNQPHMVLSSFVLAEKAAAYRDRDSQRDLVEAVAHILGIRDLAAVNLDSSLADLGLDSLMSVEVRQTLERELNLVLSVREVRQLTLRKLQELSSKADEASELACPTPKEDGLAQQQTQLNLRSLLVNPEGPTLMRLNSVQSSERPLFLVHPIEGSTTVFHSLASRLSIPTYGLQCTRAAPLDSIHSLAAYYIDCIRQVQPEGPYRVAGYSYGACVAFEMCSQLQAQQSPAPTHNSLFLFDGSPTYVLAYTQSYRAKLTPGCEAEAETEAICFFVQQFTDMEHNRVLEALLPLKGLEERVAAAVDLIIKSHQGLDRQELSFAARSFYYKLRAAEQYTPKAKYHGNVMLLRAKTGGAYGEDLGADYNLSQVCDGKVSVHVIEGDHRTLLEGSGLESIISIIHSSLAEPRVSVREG
row,SMILES,IC50 [nM]
1,CC(C)(C)OC(=O)NCCCN(C(=O)n1nnn(-c2c(Cl)cccc2Cl)c1=O)C1CCCCC1,1000 to 10000
2,COc1cccc(N(C)C(=O)n2nnn(-c3c(F)cccc3F)c2=O)c1,60 to 250
3,CCN(C(=O)n1nnn(-c2cc(F)ccc2F)c1=O)C1CCCCC1,1000 to 10000
4,COc1ccc(C(=O)O)cc1N(CCCCc1ccccc1)C(=O)n1nnn(-c2c(F)cccc2F)c1=O,60 to 250
5,Cc1nonc1NC(=O)CN(C(=O)n1nnn(-c2c(Cl)cccc2Cl)c1=O)C1CCCCC1,> 10000
6,O=C(N1CCCc2ccccc21)n1nnn(-c2c(F)cccc2F)c1=O,60 to 250
7,Cc1ccccc1C#Cc1cccc(F)c1-n1nnn(C(=O)N2CCCC3CCCCC32)c1=O (stereo not drawn),60 to 250
8,CCN(C(=O)n1nnn(-c2c(F)cccc2F)c1=O)c1ccc(N(S(C)(=O)=O)S(C)(=O)=O)cc1F,< 60
9,CCN(C(=O)n1nnn(-c2c(Cl)cccc2Cl)c1=O)C1CCC(N(C)C)CC1 (stereo not drawn),> 10000
10,CCN(C(=O)n1nnn(-c2c(F)cccc2F)c1=O)c1ccc(C(=O)NC(C)C)cc1F,< 60
11,CCN(C(=O)n1nnn(-c2ccccc2)c1=O)c1ccc(C(=O)O)c(OC)c1,60 to 250
12,CCN(C(=O)n1nnn(-c2c(F)cccc2F)c1=O)c1ccc(C#CCC2CCCCC2)cc1F,60 to 250
13,CCC(C)c1ccccc1-n1nnn(C(=O)N(CC)C2CCCCC2)c1=O (stereo not drawn),1000 to 10000
14,CCN(C(=O)n1nnn(-c2c(F)cccc2Br)c1=O)c1ccccc1,60 to 250
15,CCN(C(=O)n1nnn(-c2c(F)cccc2F)c1=O)c1ccc(CCc2ccccc2)cc1F,60 to 250
16,CCN(C(=O)n1nnn(-c2c(F)cccc2CCc2ccccc2)c1=O)c1ccccc1,60 to 250
17,CN(C(=O)n1nnn(-c2c(F)cccc2F)c1=O)c1cccc(Br)c1,60 to 250
18,O=C(N1CC[C@](O)(c2ccccc2)[C@@H]2CCCC[C@H]21)n1nnn(-c2c(F)cccc2F)c1=O,1000 to 10000
19,O=C(OCc1ccccc1)c1ccc(N(CCc2ccccc2)C(=O)n2nnn(-c3c(Cl)cccc3Cl)c2=O)cc1,> 10000
20,CCN(C(=O)n1nnn(-c2c(Cl)cccc2Cl)c1=O)c1cccc(CO)c1,250 to 1000
21,CC(C)N(C(=O)n1nnn(-c2ccccc2Cl)c1=O)c1ccccc1,250 to 1000
22,O=CNc1cccc2c1CCCN2C(=O)n1nnn(-c2c(F)cccc2F)c1=O,60 to 250
23,CCN(C(=O)n1nnn(-c2c(F)cccc2F)c1=O)c1ccc(C)cc1,60 to 250
24,CCCCc1ccc(-n2nnn(C(=O)N(CC)C3CCCCC3)c2=O)c(C)c1,> 10000
25,CCN(C(=O)n1nnn(-c2ccccc2OC)c1=O)c1cccc(C(=O)O)c1OC,250 to 1000
26,CCN(C(=O)n1nnn(-c2c(Cl)cccc2Cl)c1=O)c1cccc(C(=O)O)c1OC,1000 to 10000

row,SMILES,IC50 [nM]
1,CCN(C(=O)n1nnn(-c2ccccc2Oc2ccccc2)c1=O)C1CCCCC1,1000 to 10000
2,Cc1cccc2c1N(C(=O)n1nnn(-c3c(F)cccc3F)c1=O)CCC2,60 to 250
3,CCN(C(=O)n1nnn(-c2c(Cl)cccc2Cl)c1=O)c1ccc(Cl)c(C(=O)O)c1,60 to 250
4,CCc1ccccc1-n1nnn(C(=O)N(CC)C2CCCCC2)c1=O,1000 to 10000
5,CCN(C(=O)n1nnn(-c2cccc(OC)c2)c1=O)C1CCCCC1,> 10000
6,CCN(C(=O)n1nnn(-c2c(F)cccc2F)c1=O)c1cccc2ccccc12,60 to 250
7,CCN(C(=O)n1nnn(-c2c(F)cccc2F)c1=O)c1cc(F)ccc1F,< 60
8,CC(C)(C)OC(=O)Nc1cccc2c1CCCN2C(=O)n1nnn(-c2c(F)cccc2F)c1=O,60 to 250
9,CCN(C(=O)n1nnn(-c2c(Cl)cccc2Cl)c1=O)C1CCN(C(=O)Cc2ccccc2)CC1,250 to 1000
10,O=C(NCCCN(C(=O)n1nnn(-c2c(Cl)cccc2Cl)c1=O)C1CCCCC1)c1cccnc1,1000 to 10000
11,CCN(C(=O)n1nnn(-c2c(F)cccc2OC)c1=O)c1ccccc1C(C)(C)C,1000 to 10000
12,CN(CCc1ccccc1)C(=O)n1nnn(-c2ccccc2Cl)c1=O,> 10000
13,CCN(C(=O)n1nnn(-c2c(Cl)cccc2Cl)c1=O)C1CCCC(C(=O)NC)C1 (stereo not drawn),1000 to 10000
14,O=C(N1CCCCC1)n1nnn(-c2c(Cl)cccc2Cl)c1=O,1000 to 10000
15,CCN(C(=O)n1nnn(-c2c(Cl)cccc2Cl)c1=O)C1CCN(C(=O)CCC(=O)O)CC1,1000 to 10000
16,CN(C)C1CCCN(C(=O)n2nnn(-c3c(Cl)cccc3Cl)c2=O)C1 (stereo not drawn),1000 to 10000
17,CCN(C(=O)n1nnn(-c2c(Cl)cccc2Cl)c1=O)C1CCCC(C(=O)OCc2ccccc2)C1 (stereo not drawn),1000 to 10000
18,CS(=O)(=O)NC1CCCN(C(=O)n2nnn(-c3c(Cl)cccc3Cl)c2=O)C1 (stereo not drawn),> 10000
19,O=C(C1CCCN(C(=O)n2nnn(-c3c(Cl)cccc3Cl)c2=O)C1)N1CCCC1 (stereo not drawn),> 10000
20,CCN(C(=O)n1nnn(-c2c(Cl)cccc2Cl)c1=O)c1ccc(N)cc1,60 to 250
21,O=C(N(CCO)c1ccccc1)n1nnn(-c2c(F)cccc2F)c1=O,1000 to 10000
22,CC(C)(C)OC(=O)N(C(=O)n1nnn(-c2c(F)cccc2F)c1=O)c1ccco1,1000 to 10000
23,CCOC(=O)N1CCC(N(CC)C(=O)n2nnn(-c3c(Cl)cccc3Cl)c2=O)CC1,1000 to 10000
24,O=C(N1CCCCc2ccccc21)n1nnn(-c2c(F)cccc2Br)c1=O,250 to 1000
25,CCN(C(=O)n1nnn(-c2c(OC)cccc2OC)c1=O)c1ccc(C(=O)OCc2ccccc2)c(OC)c1,250 to 1000
26,CCN(C(=O)n1nnn(-c2c(Cl)cccc2Cl)c1=O)C1CCC(C(=O)OCc2ccc(OC)cc2)CC1 (stereo not drawn),> 10000

row,SMILES,IC50 [nM]
1,CN(C(=O)n1nnn(-c2c(F)cccc2F)c1=O)c1ccccc1F,60 to 250
2,Cc1ccccc1C#Cc1cccc(F)c1-n1nnn(C(=O)N2CCCCc3ccccc32)c1=O,60 to 250
3,CCN(C(=O)n1nnn(-c2c(Cl)cccc2Cl)c1=O)C1CCC(C(=O)N2CCOCC2)CC1 (stereo not drawn),> 10000
4,CCN(C(=O)n1nnn(-c2ccccc2OC)c1=O)c1ccc(C(=O)O)c(OC)c1,60 to 250
5,CCN(CC)C(=O)C1CCCN(C(=O)n2nnn(-c3c(Cl)cccc3Cl)c2=O)C1 (stereo not drawn),1000 to 10000
6,CCN(C(=O)n1nnn(-c2c(Cl)cccc2Cl)c1=O)C1CCCC(C(=O)N2CCOCC2)C1 (stereo not drawn),1000 to 10000
7,O=C(N1CCc2ccccc2C1)n1nnn(-c2c(F)cccc2F)c1=O,250 to 1000
8,CCN(C(=O)n1nnn(-c2c(Cl)cccc2Cl)c1=O)c1ccc([N+](=O)[O-])cc1,60 to 250
9,O=C(N1CCCc2ccccc21)n1nnn(-c2ccccc2Oc2ccccc2)c1=O,60 to 250
10,CCN(C(=O)n1nnn(-c2ccc(Cl)cc2)c1=O)C1CCCCC1,> 10000
11,CN(C)C(=O)[C@@H]1CCCN1C(=O)n1nnn(-c2c(Cl)cccc2Cl)c1=O,> 10000
12,CN(C)N(C(=O)n1nnn(-c2cccc(Cl)c2)c1=O)C1=CCCCC1,1000 to 10000
13,CC(=O)N[C@@H]1CCN(C(=O)n2nnn(-c3c(Cl)cccc3Cl)c2=O)C1,> 10000
14,CCN(C(=O)n1nnn(-c2c(OC)cccc2OC)c1=O)c1ccc(C(=O)O)c(OC)c1,250 to 1000
15,CCN(C(=O)n1nnn(-c2ccc([N+](=O)[O-])cc2)c1=O)C1CCCCC1,1000 to 10000
16,CCN(C(=O)n1nnn(-c2c(Cl)cccc2Cl)c1=O)c1ccccc1,250 to 1000
17,CCN(C(=O)n1nnn(-c2c(Cl)cccc2Cl)c1=O)C1CCCN(C(=O)Cc2ccccc2)C1 (stereo not drawn),1000 to 10000
18,C=CCN(C(=O)n1nnn(-c2c(Cl)cccc2Cl)c1=O)c1ccccc1,1000 to 10000
19,CCN(C(=O)n1nnn(-c2c(Cl)cccc2Cl)c1=O)c1cccc(CO[Si](C)(C)C(C)(C)C)c1,60 to 250
20,CCN(C(=O)n1nnn(-c2c(Cl)cccc2Cl)c1=O)c1ccc(Cl)c(C(=O)OCc2ccccc2)c1,60 to 250
21,CN(C(=O)n1nnn(-c2ccccc2Cl)c1=O)c1ccccc1,250 to 1000
22,CCN(C(=O)n1nnn(-c2ccc(F)c(F)c2F)c1=O)C1CCCCC1,> 10000
23,CCN(C(=O)n1nnn(-c2ccc(F)cc2F)c1=O)C1CCCCC1,1000 to 10000
24,O=C(OCc1ccccc1)c1ccc2c(c1)CCCN2C(=O)n1nnn(-c2c(Cl)cccc2Cl)c1=O,1000 to 10000
25,CCN(C(=O)n1nnn(-c2ccsc2)c1=O)C1CCCCC1,> 10000
26,CCN(C(=O)n1nnn(-c2cccc(C(F)(F)F)c2)c1=O)C1CCCCC1,> 10000
